ChEMBL document CHEMBL2417397, “Synthesis and biological properties of new N-Mannich bases derived from 3-methyl-3-phenyl- and 3,3-dimethyl-succinimides. Part V” (Eur J Med Chem, 2013)
Active and inactive are the calls of the source. The rule behind the calls is not given here.

Legend:
[1] = Neurotoxicity in po dosed Sprague-Dawley albino rat at 30 mg/kg, po after 0.25 to 4 hrs by rotarod test; type: toxicity, organism-based; parameters: dose 30 mg/kg, route oral; settings: in vivo
Rattus norvegicus [2] = test: Anticonvulsant activity in po dosed Sprague-Dawley albino rat assessed as protection against maximal electroshock-induced seizures after 0.25 to 4 hrs; type: functional
[3] = Neurotoxicity in ip dosed CF-1 albino mouse after 4 hrs by rotarod test; type: toxicity, organism-based; settings: CF-1, mouse, in vivo
[4] = Neurotoxicity in ip dosed CF-1 albino mouse after 0.5 hrs by rotarod test; type: toxicity, organism-based; settings: CF-1, mouse, in vivo
Mus musculus [5] = test: Anticonvulsant activity in CF-1 albino mouse assessed as protection against maximal electroshock-induced seizures at 300 mg/kg, ip after 4 hrs; type: functional, organism-based; parameters: dose 300 mg/kg
Mus musculus [6] = test: Anticonvulsant activity in CF-1 albino mouse assessed as protection against maximal electroshock-induced seizures at 300 mg/kg, ip after 0.5 hrs; type: functional, organism-based; parameters: dose 300 mg/kg
Mus musculus [7] = test: Neurotoxicity in CF-1 albino mouse at 300 mg/kg, ip after 4 hrs by rotarod test; type: toxicity, organism-based; parameters: dose 300 mg/kg, route intraperitoneal; settings: in vivo
Vibrio harveyi [8] = test: Induction of mutagenecity in Vibrio harveyi BB7XM; type: organism-based; settings: in vivo
Vibrio harveyi [9] = test: Induction of mutagenecity in Vibrio harveyi BB7M; type: organism-based; settings: in vivo
Vibrio harveyi [10] = test: Induction of mutagenecity in Vibrio harveyi BB7X; type: organism-based; settings: in vivo
Vibrio harveyi [11] = test: Induction of mutagenecity in Vibrio harveyi BB7; type: organism-based; settings: in vivo
Rattus norvegicus [12] = test: Neurotoxicity in Sprague-Dawley albino rat assessed as motor impairment at 30 mg/kg, po; type: toxicity, organism-based; parameters: dose 30 mg/kg, route oral; settings: in vivo
Rattus norvegicus [13] = test: Anticonvulsant activity in Sprague-Dawley albino rat assessed as protection against maximal electroshock-induced seizures at 30 mg/kg, po after 4 hrs; type: functional
Rattus norvegicus [14] = test: Anticonvulsant activity in Sprague-Dawley albino rat assessed as protection against maximal electroshock-induced seizures at 30 mg/kg, po after 2 hrs; type: functional
Rattus norvegicus [15] = test: Anticonvulsant activity in Sprague-Dawley albino rat assessed as protection against maximal electroshock-induced seizures at 30 mg/kg, po after 1 hr; type: functional
Rattus norvegicus [16] = test: Anticonvulsant activity in Sprague-Dawley albino rat assessed as protection against maximal electroshock-induced seizures at 30 mg/kg, po after 0.5 hrs; type: functional
Rattus norvegicus [17] = test: Anticonvulsant activity in Sprague-Dawley albino rat assessed as protection against maximal electroshock-induced seizures at 30 mg/kg, po after 0.25 hrs; type: functional
Mus musculus [18] = test: Anticonvulsant activity in ip dosed CF-1 albino mouse assessed as protection against maximal electroshock-induced seizures after 4 hrs; type: functional
Mus musculus [19] = test: Anticonvulsant activity in ip dosed CF-1 albino mouse assessed as protection against maximal electroshock-induced seizures after 0.5 hrs; type: functional
Vibrio harveyi [20] = test: Antimutagenic activity in Vibrio harveyi BB7XM assessed as inhibition of 4-nitroquinoline-N-oxide-induced mutation; type: functional
Vibrio harveyi [21] = test: Antimutagenic activity in Vibrio harveyi BB7M assessed as inhibition of 4-nitroquinoline-N-oxide-induced mutation; type: functional
Vibrio harveyi [22] = test: Antimutagenic activity in Vibrio harveyi BB7X assessed as inhibition of 4-nitroquinoline-N-oxide-induced mutation; type: functional
Vibrio harveyi [23] = test: Antimutagenic activity in Vibrio harveyi BB7 assessed as inhibition of 4-nitroquinoline-N-oxide-induced mutation; type: functional
Mus musculus [24] = test: Neurotoxicity in CF-1 albino mouse at 300 mg/kg, ip after 0.5 hrs by rotarod test; type: toxicity, organism-based; parameters: dose 300 mg/kg, route intraperitoneal; settings: in vivo
Rattus norvegicus [25] = organism: Rattus norvegicus; test: Protective index, ratio of TD50 for Sprague-Dawley albino rat by rotarod test to ED50 for Sprague-Dawley albino rat; type: functional
Rattus norvegicus [26] = test: Anticonvulsant activity in Sprague-Dawley albino rat assessed as time of peak effect for protection against maximal electroshock-induced seizures at 30 mg/kg, po; type: functional
Mus musculus [27] = test: Anticonvulsant activity in CF-1 albino mouse assessed as time of peak effect for protection against maximal electroshock-induced seizures at 30 to 300 mg/kg, ip; type: functional; settings: dose mg/kg 30-300; route intraperitoneal

Row | SMILES | TD50 at 4 h [3] [mg/kg] | TD50 at 0.5 h [4] [mg/kg] | Activity (Mus musculus [5]) | Activity (Mus musculus [6]) | Activity (Mus musculus [7]) | Activity (Vibrio harveyi [8]) | Activity (Vibrio harveyi [9]) | Activity (Vibrio harveyi [10]) | Activity (Vibrio harveyi [11]) | MED50 (Mus musculus [18]) [mg/kg] | further results
1 | O=C1CC(c2ccccc2Br)C(=O)N1CN1CCN(c2ccc(F)cc2)CC1 (configuration not stated) | – | – | – | – | – | – | – | – | – | – | TD50 [1]: 62.4 mg/kg; ED50 (Rattus norvegicus [2]): 7.4 mg/kg
2 | Cc1ccccc1N1CCN(CN2C(=O)CC(C)(C)C2=O)CC1 | 300 | 300 | inactive | inactive | – | – | – | – | – | – | –
3 | COc1ccccc1N1CCN(CN2C(=O)CC(C)(C)C2=O)CC1 | – | 300 | inactive | inactive | Non-toxic | – | – | – | – | – | –
4 | COc1ccccc1N1CCN(CN2C(=O)CC(C)(c3ccccc3)C2=O)CC1 (configuration not stated) | 300 | 300 | – | – | – | Toxic | Toxic | Non-toxic | Non-toxic | 100 | Activity (Rattus norvegicus [12]): Non-toxic; Activity (Rattus norvegicus [13]): 50%; Activity (Rattus norvegicus [14]): 50%; Activity (Rattus norvegicus [15]): 50%; Activity (Rattus norvegicus [16]): inactive; Activity (Rattus norvegicus [17]): inactive; MED50 (Mus musculus [19]): 100 mg/kg
5 | CC1(c2ccccc2)CC(=O)N(CN2CCN(c3ccccc3)CC2)C1=O (configuration not stated) | – | – | – | inactive | Non-toxic | Non-toxic | Non-toxic | Non-toxic | Non-toxic | 100 | inhibition (INH) (Vibrio harveyi [20]): 40%; inhibition (INH) (Vibrio harveyi [21]): 38%; inhibition (INH) (Vibrio harveyi [22]): 0%; inhibition (INH) (Vibrio harveyi [23]): 28%; Activity (Mus musculus [24]): Non-toxic
6 | O=C1CC(c2ccccc2)(c2ccccc2)C(=O)N1CN1CCN(c2cccc(C(F)(F)F)c2)CC1 | – | – | – | – | – | – | – | – | – | – | Ratio TD50/ED50 (Rattus norvegicus [25]): <13.2; TD50 [1]: < 400 mg/kg; ED50 (Rattus norvegicus [2]): 30 mg/kg
7 | CC1(C)CC(=O)N(CN2CCN(c3ccccc3)CC2)C1=O | 300 | 300 | – | inactive | – | – | – | – | – | 100 | –
8 | CC1(C)CC(=O)N(CN2CCN(c3ccccc3F)CC2)C1=O | – | 300 | – | inactive | Non-toxic | – | – | – | – | 100 | –
9 | CC1(c2ccccc2)CC(=O)N(CN2CCN(c3ccccc3F)CC2)C1=O (configuration not stated) | 300 | 300 | – | inactive | – | Non-toxic | Non-toxic | Non-toxic | Non-toxic | 100 | inhibition (INH) (Vibrio harveyi [20]): 35%; inhibition (INH) (Vibrio harveyi [21]): 57%; inhibition (INH) (Vibrio harveyi [22]): 0%; inhibition (INH) (Vibrio harveyi [23]): 25%
10 | Cc1cccc(N2CCN(CN3C(=O)CC(C)(c4ccccc4)C3=O)CC2)c1 (configuration not stated) | 300 | 300 | – | – | – | Toxic | Toxic | Non-toxic | Non-toxic | 100 | Activity (Rattus norvegicus [12]): Non-toxic; Activity (Rattus norvegicus [13]): 50%; Activity (Rattus norvegicus [14]): 50%; Activity (Rattus norvegicus [15]): 50%; Activity (Rattus norvegicus [16]): inactive; Activity (Rattus norvegicus [17]): inactive; MED50 (Mus musculus [19]): 100 mg/kg
11 | CC1(c2ccccc2)CC(=O)N(CN2CCN(c3cccc(C(F)(F)F)c3)CC2)C1=O (configuration not stated) | 300 | – | – | inactive | – | – | – | – | – | 100 | Activity (Mus musculus [24]): Non-toxic
12 | Cc1ccccc1N1CCN(CN2C(=O)CC(C)(c3ccccc3)C2=O)CC1 (configuration not stated) | – | 300 | inactive | inactive | Non-toxic | Toxic | Toxic | Non-toxic | Non-toxic | – | –
13 | CC1(C)CC(=O)N(CN2CCN(c3ccccc3Cl)CC2)C1=O | – | 100 | inactive | inactive | Non-toxic | – | – | – | – | – | –
14 | O=C1CC2(CCc3ccccc3C2)C(=O)N1CN1CCN(c2cccc(Cl)c2)CC1 (configuration not stated) | – | – | – | – | – | – | – | – | – | – | Ratio TD50/ED50 (Rattus norvegicus [25]): >25.69; TD50 [1]: > 400 mg/kg; ED50 (Rattus norvegicus [2]): 15.6 mg/kg
15 | CC1(C)CC(=O)N(CN2CCN(c3cccc(C(F)(F)F)c3)CC2)C1=O | 300 | 300 | – | inactive | – | – | – | – | – | 30 | Activity (Rattus norvegicus [12]): Non-toxic; Activity (Rattus norvegicus [13]): Active; Activity (Rattus norvegicus [14]): 50%; Activity (Rattus norvegicus [15]): 25%; Activity (Rattus norvegicus [16]): 75%; Activity (Rattus norvegicus [17]): 25%
16 | CC1(C)CC(=O)N(CN2CCN(c3ccc(F)cc3)CC2)C1=O | – | 300 | inactive | inactive | Non-toxic | – | – | – | – | – | –
17 | CC1(C)CC(=O)N(CN2CCN(c3ccc(Cl)c(Cl)c3)CC2)C1=O | – | – | inactive | inactive | Non-toxic | – | – | – | – | – | Activity (Mus musculus [24]): Non-toxic
18 | CC1(c2ccccc2)CC(=O)N(CN2CCN(c3ccc(Cl)cc3)CC2)C1=O (configuration not stated) | – | – | – | inactive | Non-toxic | Non-toxic | Non-toxic | Non-toxic | Non-toxic | 100 | inhibition (INH) (Vibrio harveyi [20]): 43%; inhibition (INH) (Vibrio harveyi [21]): 43%; inhibition (INH) (Vibrio harveyi [22]): 0%; inhibition (INH) (Vibrio harveyi [23]): 6%; Activity (Rattus norvegicus [12]): Non-toxic; Activity (Rattus norvegicus [13]): 75%; Activity (Rattus norvegicus [14]): 75%; Activity (Rattus norvegicus [15]): 75%; Activity (Rattus norvegicus [16]): inactive; Activity (Rattus norvegicus [17]): inactive; Activity (Mus musculus [24]): Non-toxic
19 | CC1(c2ccccc2)CC(=O)N(CN2CCN(c3ccccc3Cl)CC2)C1=O (configuration not stated) | – | – | inactive | inactive | Non-toxic | Non-toxic | Non-toxic | Non-toxic | Non-toxic | – | inhibition (INH) (Vibrio harveyi [20]): 49%; inhibition (INH) (Vibrio harveyi [21]): 47%; inhibition (INH) (Vibrio harveyi [22]): 0%; inhibition (INH) (Vibrio harveyi [23]): 3%; Activity (Mus musculus [24]): Non-toxic
20 | CCC1(C)CC(=O)NC1=O (configuration not stated) [ETHOSUXIMIDE] | – | – | – | – | – | Non-toxic | Non-toxic | Non-toxic | Non-toxic | – | inhibition (INH) (Vibrio harveyi [20]): 43%; inhibition (INH) (Vibrio harveyi [21]): 43%; inhibition (INH) (Vibrio harveyi [22]): 0%; inhibition (INH) (Vibrio harveyi [23]): 30%
21 | Cc1cccc(N2CCN(CN3C(=O)CC(C)(C)C3=O)CC2)c1 | – | 300 | inactive | inactive | Non-toxic | – | – | – | – | – | –
22 | O=C1NC(=O)C(c2ccccc2)(c2ccccc2)N1 [PHENYTOIN] | – | – | – | – | – | – | – | – | – | – | Ratio TD50/ED50 (Rattus norvegicus [25]): >3.6; TD50 [1]: > 100 mg/kg; Time (Rattus norvegicus [26]): 2 h; Time (Mus musculus [27]): 1 h; Activity (Rattus norvegicus [13]): 75%; Activity (Rattus norvegicus [14]): 75%; Activity (Rattus norvegicus [15]): 75%; Activity (Rattus norvegicus [16]): Active; Activity (Rattus norvegicus [17]): 25%
23 | COc1cccc(N2CCN(CN3C(=O)CC(C)(c4ccccc4)C3=O)CC2)c1 (configuration not stated) | – | – | – | – | Non-toxic | Toxic | Toxic | Non-toxic | Non-toxic | 100 | Activity (Mus musculus [24]): Non-toxic; MED50 (Mus musculus [19]): 100 mg/kg
24 | CC1(C)CC(=O)N(CN2CCN(c3ccc(Cl)cc3)CC2)C1=O | – | 300 | inactive | inactive | Non-toxic | – | – | – | – | – | –
25 | COc1cccc(N2CCN(CN3C(=O)CC(C)(C)C3=O)CC2)c1 | – | 300 | – | inactive | Non-toxic | – | – | – | – | 100 | Activity (Rattus norvegicus [12]): Non-toxic; Activity (Rattus norvegicus [13]): inactive; Activity (Rattus norvegicus [14]): inactive; Activity (Rattus norvegicus [15]): inactive; Activity (Rattus norvegicus [16]): 25%; Activity (Rattus norvegicus [17]): inactive
26 | CC1(C)CC(=O)N(CN2CCN(c3cccc(Cl)c3)CC2)C1=O | 300 | 300 | inactive | inactive | – | – | – | – | – | – | –
